# According to patent US7786258B2, “Methods for inhibiting immune complex formation in a subject” (Trinity Therapeutics, Inc., priority 2004, dated 2010):
# Positions of bridges follow the written chain, without caps; N, C: chain ends. No end group written: not given here.
# Legend:
# RF = experiment: Inhibition of RF binding to immune complexes using additional peptides (Example 5); settings: for OD 405 nm: PAP pre-incubated with peptide one hour, RF coated plates, positive control 1.176
# Method: The ability of additional peptides to inhibit the binding of RF to immune complexes was tested. Immune complexes (PAP) were formed by mixing 2 μl of rabbit anti-peroxidase with 50 μl of peroxidase in 1 ml distilled water. PAP (100 μl) were pre-incubated with 100 μl of peptide for one hour. Plates coated with RF were blocked with 5× BSA for 24 hours. The PAP/peptide mixtures (100 μl) were incubated with the RF coated plates for 30 minutes. RF (100 μl of a 200 I.U. standard supplied by Research Diagnostics) was used as a negative control. After washing and incubation with ABTS substrate (Quidel Corp., San Diego, Calif.) for 15 minutes, plates were read at 405 nm.
# C1q = experiment: Inhibition of C1q binding to immune complexes using additional peptides (Example 6); set-up: species or system human; settings: for OD 405 nm: PAP pre-incubated with peptide or human C1q one hour, C1q coated plates, positive control 2.355
# Method: The C1q/PAP and peptide/PAP mixtures (100 μl) were incubated with C1q coated plates for 30 minutes. After washing, plates were incubated with ATBS (Quidel Corp.) for 15 minutes and read at 405 nm.
# human monomeric IgG = experiment: Inhibition of RF binding to monomeric IgG by additional peptides (Example 7); settings: peptides pre-incubated 1 hour with monomeric IgG, then 200 I.U. RF; positive control 1.312
# Method: The ability of additional peptides to inhibit RF binding to monomeric IgG was tested. A standard rheumatoid factor commercial test was used (Research Diagnostics, New Jersey) with the following modifications: 100 μl of test peptides were pre-incubated for 1 hour with human monomeric IgG (Research Diagnostics, New Jersey). Plates were then washed and incubated with 200 I.U. of the RF positive control supplied with the test kit. The rest of the test was performed according to the manufacturer's instructions.
# FcγIIa = experiment: Inhibition of FcR binding to PAP by additional peptides, FcγIIa coated plates (Example 8); settings: for OD 405 nm: OD read at 405 nm, positive control 1.599
# Method: (§1) Falcon microtiter plates were coated with 1:10 dilutions of highly purified FcγIIa, FcγIIb and FcγIII, sealed, and incubated for […] at 4° C. […] PAP immune complexes were formed as described in Example 5. PAP (100 μl) were pre-incubated with 100 μl of peptide for one hour. PAP/peptide mixtures were added to the FcR coated plates and incubated for one hour. After washing, plates were incubated with ABTS substrate for 15 minutes and read at 405 nm.
# FcγIIb = experiment: Inhibition of FcR binding to PAP by additional peptides, FcγIIb coated plates (Example 8); settings: OD read at 405 nm; positive control 1.394
# Method: as §1
# FcγIII = experiment: Inhibition of FcR binding to PAP by additional peptides, FcγIII coated plates (Example 8); settings: OD read at 405 nm; positive control 1.588
# Method: as §1
# histone = experiment: Inhibition of histone binding: PAP immune complexes on histone-coated plates (Example 3)
# Method: Inhibition of histone binding: The binding of immune complexes to the kidneys in lupus nephritis appears to involve (a) the binding of histones to the GBM, and then (b) the binding of immune complexes (through the IgG Fc CH2-CH3 cleft) to the bound histones. Experiments similar to those described above were used to inhibit binding of purified histone to IgG Fc binding. Histone (Sigma) was diluted 1:10 in coating buffer (Alpha Diagnostic International) and incubated on Falcon microtiter plates for 24 hours. Plates were blocked with 5× BSA blocking solution (Alpha Diagnostic International) for 24 hours. Freshly prepared 1:10 rabbit PAP (Sigma) was pre-incubated with either peptides or histone for one hour, and 100 μl of the mixture was added to the histone-coated plates for one hour. Plates were incubated with ABTS substrate (Quidel Corp.) for 45 minutes, and OD 405 was read.
# MBP = tested on: MBP
# Method: Inhibition of MBP binding: MBP (Sigma) was diluted 1:10 with coating buffer (Alpha Diagnostic International) and incubated for 24 hours on Falcon microtiter plates. Plates were washed and then blocked with 5× BSA blocking buffer (Alpha Diagnostic International) for 24 hours. Rabbit 1:10 PAP immune complexes were pre-incubated with equal amounts of peptide or MBP for 30 minutes. One hundred μl of PAP immune complexes/peptide or PAP/MBP was then added to the MBP-coated plates and incubated for one hour. The plates were washed and incubated with TMB substrate (Alpha Diagnostic International) for 30 minutes. After adding stop solution (Alpha Diagnostic International), the plates were read at 450 nm.
# Further experiments were conducted to determine the effect of SEQ ID NO:47 (also referred to as NB-406) on binding of MBP to IgG PAP immune complexes.
sequence,measurement,setting,value
DCAFHLGELVWCT (disulfide 2-12 (inferred)),OD 405 nm,RF,0.267
same,OD 405 nm,C1q,0.859
same,OD 405 nm,human monomeric IgG,0.962
same,OD 405 nm,FcγIIa,0.660
same,OD 405 nm,FcγIIb,0.510
same,OD at 405 nm,FcγIII,0.810
APPDCAWHLGELVWCT (Synthetically generated polypeptide),OD 405 nm,"histone; Table 5 experiment, IgG PAP immune complexes, positive control 2.110",0.227
same,"inhibition of histone binding to immune complexes, in words",histone; text on Tables 4 and 5,significantly inhibit
same,OD 405 nm,"MBP; Table 7 experiment, IgG PAP immune complexes, positive control 2.343",0.500
same,"inhibition of MBP binding to immune complexes, in words",MBP; text on Tables 6 and 7,able to inhibit
same,OD 405 nm,RF,0.205
same,"inhibition of RF binding to immune complexes, in words",RF; Table 10,best inhibition
same,OD 405 nm,C1q,0.389
same,"inhibition of C1q binding, in words",C1q; Table 11,greatest inhibition
same,OD 405 nm,human monomeric IgG,1.065
same,OD 405 nm,FcγIIa,0.509
same,"inhibition of FcR binding to PAP, in words","FcγIIa; Table 13, statement for FcγIIa, FcγIIb and FcγIII together",greatest inhibition
same,OD 405 nm,FcγIIb,0.496
same,OD at 405 nm,FcγIII,0.670
APPCAFHLGELVWCT (disulfide 4-14 (inferred)),OD 405 nm,RF,0.226
same,OD 405 nm,C1q,0.983
same,OD 405 nm,human monomeric IgG,1.159
same,OD 405 nm,FcγIIa,0.605
same,OD 405 nm,FcγIIb,0.380
same,OD at 405 nm,FcγIII,0.880
APPCAWHLGELVWCT (disulfide 4-14 (inferred)),OD 405 nm,RF,0.250
same,OD 405 nm,C1q,1.148
same,OD 405 nm,human monomeric IgG,1.166
same,OD 405 nm,FcγIIa,0.658
same,OD 405 nm,FcγIIb,0.562
same,OD at 405 nm,FcγIII,0.530
